{
  "source": "patent US20110098219A1",
  "about": "“System for Curing Hepatic Cancer with Leptin” (KAOHSIUNG MEDICAL UNIVERSITY, priority 2009, published 2011)",
  "key": {"[1]": {"system": "cleaved caspase 3, cleaved caspase 7 and cleaved PARP", "test": "Western blotting of apoptosis-related proteins", "type": "cell-based", "details": "24 hours", "protocol": "Please refer to FIG. 7, which is a view showing effect of MPA+leptin on related proteins for apoptosis. As shown in the figure, through analysis on liver cancer cells after applied with MPA+leptin for 24 hours, observation is done with a focus on changes of their related proteins for apoptosis. When different doses of MPA are combined with different doses of leptin for treatment for 24 hours, cellular proteins of anti-cleaved caspase 3, anti-cleaved caspase 7 and anti-cleaved Poly-ADP-ribose-polymerase (PARP) are processed with western blotting."}, "[2]": {"system": "STAT- and MAPK-related signal paths", "test": "Protein expression of STAT- and MAPK-related signal paths in normal liver cell line", "type": "cell-based", "protocol": "Please refer to FIG. 17A to FIG. 18B, which are views showing epithelial cell line of normal liver treated with MPA+leptin for 24 hours and 48 hours respectively; and views showing STAT3- and MAPK-related signal paths after treating cell line of normal liver with MPA+leptin. As shown in the figures, after epithelial cell line of normal liver (THLE-3) is applied with MPA+leptin for […], MPA+leptin's effect on cell growth (i.e. survival rate) is analyzed through XTT assay. […] Besides, in FIG. 18A and FIG. 18B, protein expressions for STAT- and MAPK-related signal paths are analyzed."}, "liver cancer patients": {"system": "liver cancer patients", "test": "Survival of liver cancer patients treated with MPA after surgery", "type": "in vivo, human", "details": "P value 0.008", "from_the_text": "In ‘in vitro’ studies and clinical experiments, leptin and MPA are found to have obvious effect on suppressing liver cancer cells and improving patient's survival rate. Thus, the therapeutic drug is formed by combining MAP with leptin to cure liver cancer patients, where the physiological concentration of leptin in a normal human body is almost able to enhance the treatment effect of MPA. MPA is used for treatment in the present invention, where, for obtaining a better effect, leptin is directly combined with MPA or leptin is obtained by increasing the physiological concentration of leptin in the patient at first.\nConsequently, the leptin expression can be taken as an index for effectiveness of the hormone therapy (i.e. MPA) after the surgery; and, the survival time of the liver cancer patients can be maintained or even prolonged."}},
  "data": [
    {"smiles": "CC(=O)O[C@]1(C(C)=O)CC[C@H]2[C@@H]3C[C@H](C)C4=CC(=O)CC[C@]4(C)[C@H]3CC[C@@]21C", "note": "[MPA, medroxyprogesterone acetate]", "values": [
      {"measurement": "activation of cleaved caspase 3/7 and cleaved PARP", "setting": "[1]", "value": "obviously activated"},
      {"measurement": "effect on STAT- and MAPK-related signal proteins", "setting": "[2]", "value": "no obvious effect"},
      {"measurement": "survival time, patients with higher versus lower leptin expression", "setting": "liver cancer patients", "value": "longer survival time"}
    ]}
  ]
}
